One data set concerns Dendra2-LC3. Briefly: Autophagic flux assay, optical pulse labeling of Dendra2-LC3. Format: cell-based, rat. As for the experimental part:
(§1) Primary spinal neurons were dissected from E15 rat pups and cultured at a density of 2.5 × 10^5 cells/ml on a laminin/poly-lysine-coated 96-well plate in motor neuron media. Four days after plating, neurons were transfected with Lipofectamine 2000 (Invitrogen). DNA-Lipofectamine mixtures were incubated with neurons for 20 min followed by rinsing. Neurons were then placed in 100 µL of conditioned media that was collected immediately prior to transfection and half fresh motor neuron media containing 4 µM PR20, resulting in a final concentration of 2 µM PR20.
(§2) Optical pulse labeling experiments were performed using an automated microscopy platform previously described by [Arrasate et al. (2004)] and [Barmada et al. (2014)]. A Nikon Eclipse Ti inverted microscope equipped with a PerfectFocus system, 20× objective lens and an Andor iXon3 897 EMCCD camera were used to acquire images. Samples were illuminated with a Sutter Instruments Lamba XL lamp. The microscope and related components were encased in custom-built plexiglass enclosure set to maintain the temperature at 37°C and CO2 at 5%. Semrock GFP and TRITC filters were used for excitation and detection. A Semrock 405-nm long-pass filter was used for photoactivation. Image acquisition and stage movements were accomplished in an automated fashion using µManager and original code written in BeanShell. For all experiments, photoconversion occurred 24 h following transfection. GFP and TRITC images were acquired immediately following activation and subsequently every 2 h for 12 h. Images were acquired in a similar 12-h window starting 48 h after PR20 treatment. Using in-house image analysis scripts, neuronal cell bodies were identified based on their fluorescent intensity and morphology, and a ROI was drawn around the perimeter of each cell at each time. Single-cell TRITC intensity values were recorded and used to fit a first order exponential decay curve for individual neurons and calculate a Dendra2-light chain 3 (LC3) half-life for each cell. […]

Data set [1] has as its system ubiquitin-proteasome system. The data set can be described thus: MG-132 flux assay (flux of ubiquitylated substrates through the UPS). Format: cell-based, rat. As to the method:
MG-132 (Sigma) was used to inhibit proteasomal function. Cells were initially treated with PR20 for a total of 48 h using the method outlined in PR20 treatment for biochemical assays. Four hours prior to lysis, these cells were treated with MG-132 or vehicle. The MG-132 was kept in a stock solution in DMSO. This was added directly to culture to achieve a final concentration of 5 μM. Cells were then lysed in RIPA buffer and immunoblotted for ubiquitin.
Ubiquitin analysis requires the use of deubiquitinase (DUB) inhibitors. Lysis without these inhibitors runs the risk of degradation of the substrates to be targeted. As such, N-ethylmaleimide (Sigma), a potent DUB inhibitor, was used in the lysis buffer. […] The remainder of the lysis procedure follows Cell lysis.
To test for group differences in the flux assay, a permutation test was used. This is a nonparametric statistical test that was implemented in MATLAB. […] The test first quantifies this by taking the average of each experimental group and then finding the difference of ratios. It then permutes two samples located in two groups randomly, and determines that difference between averages again. This is repeated 50,000 times, and a histogram is plotted. This histogram represents the distribution of random noise in the sample. Since a higher difference in the +MG132/−MG132 ratio is a more “significant” result, the percentage of the random noise produced from 50,000 permutations that is higher in magnitude than the true difference (calculated from un-permuted data) is the p value.
Permutations of a data point in a +MG132 into a group labeled −MG132 (or vice versa) were not allowed. […] Thus, this group difference was not interesting to us.

A further data set concerns Dendra2. The data set can be described thus: Optical pulse labeling of Dendra2. Format: cell-based, rat. The settings on record: vehicle 29.6 h. As for the experimental part:
as §1, §2

Data set [2] relates to motor neurons. Briefly: Motor neuron survival in mixed spinal cord cultures (SMI32 counts), LD50 determination. Format: cell-based, rat. As for the experimental part: Mixed spinal cord neuron cultures were prepared as described previously ([Mojsilovic-Petrovic et al., 2006]). Briefly, an astrocyte feeder layer was prepared from the cortex of newborn Sprague Dawley rat pups [postnatal day 2 (P2)] and grown to ∼80% confluency. Subsequently, dissociated embryonic day 15 (E15) spinal cord neurons were added. One to two days later, AraC ([…]) (catalog #C6645; Sigma) was added for 24 h to arrest astrocyte proliferation. Cultures were maintained in glia-conditioned medium supplemented with the following trophic factors (1.0 ng/ml each): human neurotrophin-3, human neurotrophin-4, human brain-derived neurotrophic factor, and rat ciliary neurotrophic factor (Alomone Labs). Half of the culture medium was replaced on a biweekly basis.
Days in vitro (DIV)14 mixed spinal cord cultures were exposed to PR20 or GR20 by addition of synthetic peptide to the media one time. Cultures were fixed 5 d later with freshly prepared 4% paraformaldehyde for 20 min, washed extensively with 0.1 M PBS, pH 7.4, and immunostained with SMI32 to identify motor neurons. Immunopositive cells >25 µm in diameter are motor neurons based on their costaining for peripherin, ChAT, and islet 1/2 ([Mojsilovic-Petrovic et al., 2006]). Motor neurons were counted in three nonoverlapping, randomly selected fields on a coverslip using a 5[times objective, and the values from a single coverslip averaged. The results of 3-5 independently treated coverslips were the basis and means and variance used in statistical analysis. Each experiment was repeated with independently generated culture 4+ times ([Mojsilovic-Petrovic et al., 2006]).
Motor neuron survival 5 d later was determined. Once the approximate LD50 was determined, we repeated the analysis with more closely spaced concentrations for a more precise definition of the LD50. Determination of the LD50 of MG132 was accomplished in an identical manner.

Data set [3] relates to U2OS cells and human astrocytes. The settings on record: cited from earlier work. An excerpt:
The difficulty of distinguishing between toxic HRE mRNA and DPR proteins has impeded our understanding of the mechanism underlying C9ORF72 HRE pathophysiology. As reported in Science ([Kwon et al., 2014]), the McKnight lab devised a strategy to overcome this problem: they studied U2OS cells and human astrocytes directly exposed to synthetic DPR proteins. […] We built upon this approa ...

The test system of data set [4] is mixed spinal cord cultures. Briefly: Cellular accumulation and disposal of HA-tagged DPR (immunoblot of cell lysates, continuous exposure or 2-h pulse-chase).
Experimental: Confluent dishes of astrocyte neuron cocultures at 37°C had volumes equalized to 2 ml of cell culture media each. Approximately 300 μl of media from each dish was removed and pooled with other dishes, PR20 stock solution was added, and the mixture was then added back to the corresponding culture dish, so that each dish contained a final concentration of 2 μM. All plates were incubated with PR20 for 48 h.
Lysis buffer was prepared containing 1% (v/v) protease inhibitor cocktail, 1% (v/v) PMSF, and 1% (v/v) leucine in 1% RIPA buffer solution on ice. Culture dishes were washed once with ice-cold PBS to remove any remaining media. A total of 125 μl (35-mm dish), 150 μl (6-well plate), or 250 μL (60-mm dish) of lysis buffer was added to each plate, and cells were scraped into a cold 1.5-ml tube. Samples were sonicated for 30 s at 20% intensity, placed on a rotator at 4°C for 20 min, and then centrifuged for 15 min at 13,200 rpm. Supernatant was then removed from each tube for further analysis.
We investigated the fate of PR20 in mixed spinal cord cultures through immunoblotting and immunocytochemistry. […] To gain further insight into the kinetics of the observed decrease in PR20 levels in cell lysates over time, we pulsed cells with 2 µM PR20 for 2 h, washed, replaced with fresh media (lacking PR20), and made cell lysates at regular intervals thereafter. […] To more easily follow GR20 by immunoblotting, we applied 10 µM GR20 to cultures and performed the same kinetic analysis as described in Figure 1D.
For data set [5], the system named is motor neurons. Briefly: Motor neuron survival with IU1 co-treatment. Format: cell-based, rat. As to the method: Days in vitro (DIV)14 mixed spinal cord cultures were exposed to PR20 or GR20 by addition of synthetic peptide to the media one time. Cultures were fixed 5 d later with freshly prepared 4% paraformaldehyde for 20 min, washed extensively with 0.1 M PBS, pH 7.4, and immunostained with SMI32 to identify motor neurons. […] Motor neurons were counted in three nonoverlapping, randomly selected fields on a coverslip using a 5[times objective, and the values from a single coverslip averaged.
For experiments involving IU1, DIV14 cultures were treated with PR20 or its vehicle, and every other day, IU1 (or vehicle) was added to the culture media to achieve a final concentration of 5 µM. At DIV19, cultures were fixed and motor neuron number determined as described above.

Setting [6] is: 10 µM in media, continuous exposure.

The source of these data is article PMC5282547, “The Proline/Arginine Dipeptide from Hexanucleotide Repeat Expanded C9ORF72 Inhibits the Proteasome” (eNeuro, 2017).

Entries after “also recorded” stand apart in the source; their conditions may differ. Where a SMILES comes first, the peptide text is derived from it. The star is where a group is joined. Cbz = O=C(OCc1ccccc1)*

“GR20: synthetic, HA-tagged dipeptide repeat protein: glycine/arginine repeated 20 times”: the “extension of Dendra2-LC3 half-life compared with control” value in the data set with Dendra2-LC3 (2 µM peptide, primary spinal neurons, single-cell optical pulse labeling) came out at 1.5 h. Also, in data set [1] (peptide 48 h (PR20 2 µM), then MG-132 5 µM or vehicle 4 h, permutation test), the “proteasomal flux (difference in ubiquitin +/- MG-132) versus vehicle” value is “neither influenced total ubiquitin levels nor proteasomal flux”. The molecule further gave a Dendra2 half-life in the data set on Dendra2 (2 µM peptide, not significantly different from vehicle) of 31.0 h. Further, the “toxicity to motor neurons at ∼20 times higher concentration than PR20” value with motor neurons [2] (5 d) is listed as “not toxic”. Also, the toxic concentration range in data set [3] is 10 to 30 µM. For the same molecule, in data set [4] (setting [6]), the “period of maximal accumulation in cells” value is “first hour” and the “time point at which immunoblot signal is undetectable” value is recorded as 24 h. Also, the “earliest detection in cell lysates” value in data set [4] (10 µM in media, continuous exposure, anti-HA immunoblot) is given as 15 min. In data set [4] (2-h pulse-chase, 10 µM), the “lysate fractions with detectable Western blot signal at the 2-h time point” value is “soluble fraction only” and the “time point by which signal diminishes to a barely detectable level” value is 4 h. In addition, the “half-life of dipeptide in cells” value in data set [4] (immunoblot of mixed spinal cord culture lysates) is “on the orders of hours”. In addition, in data set [4] (single 2-h application of 2 µM), the “detectability by immunoblotting in lysates” value is reported as “weakly detectable”.

With `CC(C)C[C@@H](C=O)NC(=O)[C@H](CC(C)C)NC(=O)[C@H](CC(C)C)NC(=O)OCc1ccccc1` [MG132, reference compound] (Cbz-Leu-Leu-Leu-aldehyde), the “extension of Dendra2-LC3 half-life compared with control” value in the data set on Dendra2-LC3 (10 µM MG132, primary spinal neurons) is on record as 11.9 h. The “proteasomal flux versus control” value in data set [1] (150 nM MG132 48 h, then 5 µM MG132 or vehicle 4 h, n = 6, p = 0.027) is recorded as “statistically significant reduction”. Moreover, the “motor neuron number compared with all other experimental groups” value in the data set with motor neurons [5] (150 nM MG132, 5 d, p = 0.001) is “statistically significantly fewer motor neurons”. The molecule further registered a Dendra2 half-life in the data set with Dendra2 (MG132 (10 µM), p = 3.23 × 10^−5) of 32.3 h. Also, the “LD50, motor neuron number” value with motor neurons [2] (added one time to mixed spinal cord cultures, counted 5 d later) fell in the range of 100 to 150 nM.

Regarding `Cc1cc(C(=O)CN2CCCC2)c(C)n1-c1ccc(F)cc1` [IU1], the “effect of IU1 on MG132-induced reduction in motor neuron number” value with motor neurons [5] (5 µM IU1, 150 nM MG132, 5 d) was “reversed”. The “effect of IU1 on PR20-induced motor neuron death” value in the data set with motor neurons [5] (5 µM IU1 every other day with PR20, 5 d, p < 0.05) is “blocks the toxic effects; also recorded: rescued to control levels; also recorded: prevents this effect”. Moreover, the “effect of IU1 alone on motor neuron survival” value with motor neurons [5] (5 µM IU1 every other day, vehicle-treated cells, 5 d) is recorded as “not toxic; also recorded: did not influence the survival”.
